Data published in patent US20250109165A1, “CYCLOPHILIN INHIBITORS AND USES THEREOF” (The Broad Institute, Inc., priority 2022, published 2025).
“Also recorded” adds a separate entry of the source.

Tests used:
cyclophilins [1] = assay: Prolyl-isomerase inhibition screen on cyclophilins and cyclophilin mutants; assay type: biochemical, human
Protocol: (§1) IC50 values were calculated to be the value at which 50% inhibition was achieved on each compound's non-linear regression fitted curve.

HeLa cells = assay: Fluorescence microscopy on HeLa cells; assay type: cell-based, human; conditions: Cy5 labeled compound 6 μM
Protocol: Fluorescence microscopy on Hela cells. Into 96 well black, clear bottom TC treated plates, cells were seeded in Dulbecco's Modified Eagle Medium (DMEM) supplemented with 10% fetal bovine serum 24 hours prior at a density where wells were ˜80% confluent at time of experiment. Media was removed and cells were then stained with 50 μL of mixture containing Cy5 labeled compound (6 μM) in Kreb's ringer solution HEPES buffered pH 7.2 (KRB), for 1 hour at 37° C. Then, 50 μL Hoechst 33342 (8 μM) and Mitotracker Green FM (0.1 μM) in KRB was added directly to wells containing cells and incubated for 15 minutes at 37° C. Media was removed and cells were washed two times with 100 μL KRB. Cells were then kept adherent to the wells in 100 μL KRB for imaging. Fluorescence microscopy was conducted on an Opera Phenix Plus High-Content Screening System, using Alexa 488, Alexa 647, and Hoescht 33342 channels. Images were analyzed using Harmony 4.9.

[2] = system: mPTP opening in isolated mouse liver mitochondria; assay: Mitochondrial calcium retention capacity assay; assay type: cell-based; conditions: 2 μM CsA, 10 μM B52-Cy5, 10 μM *B52-Cy5, 20 μM B53-Cy5, 20 μM *B53-Cy5; pulses of 60 μM CaCl2; compared to DMSO control
Protocol: Isolation of mouse liver mitochondria: All procedures used in animal studies were approved by the Institutional Animal Care and Use Committee at Massachusetts General Hospital. Female C57B1/6 J mice (Jackson Labs) age 10-12 weeks were anesthetized by isoflurane. The liver from one mouse was rinsed in ice-cold PBS, minced in ice-cold isolation buffer containing 0.28 M sucrose, 10 mM Hepes-KOH pH 7.2, 0.2 mM EDTA and 1% (w/v) BSA, gently homogenized with 4 strokes of a tight-fitting Teflon pestle at 1000 rpm, and then centrifuged for 10 minutes at 600 g at 4° C. The supernatant was recovered and centrifuged for 10 minutes at 8000 g at 4° C. The loose outer buffy coat was rinsed off and the pellet resuspended gently in isolation buffer and the spins were repeated. […] The suspension was kept on ice and all assays performed within 4-6 hours following isolation. Quality control was done with every preparation by adding 250 mcg mitochondria to 500 μl of assay buffer containing 137 mM KCl, 10 mM Hepes-KOH pH 7.2, 2.5 mM MgCl2, 5 mM each of glutamate and malate, and 3 mM KH2PO4. Sequential 150 μM ADP pulses were then delivered. Preparations with respiratory control ratio>6 (as assessed by the ratio of ADP-coupled state 3 respiration to state 4 respiration) were used for further experiments. Measurements were made in a custom-built fluorimeter using a cuvette with a Red Eye oxygen patch (Ocean Optics) and an optical probe that is connected to the fluorimeter.
Mitochondrial calcium retention capacity assays: 250 mcg of mouse liver mitochondria isolated as above were added to […] of assay buffer containing 125 mM KCl, 20 mM Hepes-KOH pH 7.2, 1 mM MgCl2, 5 mM each of glutamate and malate, and 3 mM KH2PO4. 0.5 μM Calcium Green-5N (Molecular Probes) was included to monitor extramitochondrial free Ca^2+. Fluorescence was continuously monitored in the custom-built fluorimeter described above, with excitation 470 nm and emission […]. Sequential 60 μM CaCl2) pulses were delivered until Ca^2+ uptake ceased and an abrupt release of previously taken up Ca^2+ was observed, consistent with mPTP opening. The calcium retention capacity ratio (CRC) was obtained by normalizing the number of Ca^2+ pulses that could be taken up in a given condition by that taken up under DMSO control conditions, as previously described^72.

cyclophilins [3] = assay: Anisotropy binding assay of fluorescein-labeled macrocycles; set-up: species or system human; conditions: 0.5 nM fluorescein-labeled macrocycle
Protocol: Final assay volume was 100 μL with 0.25% DMSO. Fluorescence anisotropy was then measured using a Tecan Spark® plate reader using 492 nm/523 nm excitation/emission settings.

CypD = target: T1, CypD (Homo sapiens, UniProt P30405); assay: Chymotrypsin coupled prolyl-isomerase assay; assay type: biochemical
T1 construct: PPIF (UniProtKB Entry P30405: res 45-207); made in house; host or cells: E. coli BL21(DE3)
T1 sequence (P30405 45-207): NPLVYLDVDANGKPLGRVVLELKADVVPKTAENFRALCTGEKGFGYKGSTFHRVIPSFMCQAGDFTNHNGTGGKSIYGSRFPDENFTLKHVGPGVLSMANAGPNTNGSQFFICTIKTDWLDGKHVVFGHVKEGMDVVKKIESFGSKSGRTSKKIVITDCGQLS
Protocol: as §1

CypE [4] = target: T2, CypE (Homo sapiens, UniProt Q9UNP9); assay: Competition anisotropy (fluorescence polarization) binding assay with A26-Fl; conditions: for CypE binding in FP competition (in words): compared to C3A
T2 construct: PPIE (UniProtKB Entry Q9UNP9: res 131-301); host or cells: E. coli BL21(DE3)
T2 sequence (Q9UNP9 131-301): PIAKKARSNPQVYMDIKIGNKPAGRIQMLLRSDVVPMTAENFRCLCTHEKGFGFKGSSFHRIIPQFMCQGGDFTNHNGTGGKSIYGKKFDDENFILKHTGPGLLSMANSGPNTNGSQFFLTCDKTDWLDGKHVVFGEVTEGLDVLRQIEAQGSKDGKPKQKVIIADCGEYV
Protocol: Competition anisotropy binding assay with A26-Fl: Adapted from previous work^54, into a flat-bottom black untreated 96 well plate (Corning), cyclophilin in assay buffer (25 mM HEPES pH 8.0, 100 mM NaCl, 0.01% Triton X-100) at a predetermined concentration from FIG. 27 was incubated with 0.5 nM A26-Fl for 10 minutes at room temperature. Competitor macrocycle was then added to each well and incubated for 24 hours. Final assay volume was 100 μL with 0.25% DMSO. Fluorescence anisotropy was then measured using a Tecan Spark® plate reader using 492 nm/523 nm excitation/emission settings. Raw fluorescence polarization data was normalized to protein+fluorescent probe and buffer+fluorescent probe and Ki values were calculated using one site-competitive binding equation with Prism 9, importing Kd values from A26-Fl (FIGS. 12A-12C).

CypE [5] = target: T2, CypE; assay: Chymotrypsin coupled prolyl-isomerase assay; assay type: biochemical; conditions: for IC50: wild-type CypE, read-out: IC50^CypE
Protocol: as §1

NC(=O)[C@H]1CCNC(=O)/C=C/C(=O)N2CCC[C@](Cc3ccccc3)(C2)C(=O)N[C@H](Cc2ccc(-c3ccc(CC(C(=O)O)C(=O)O)cc3)cc2)C(=O)NCc2ccccc2CC(=O)N1 [*B52-A]
inhibition of cyclophilins tested (in words) (cyclophilins [1]): no substantial inhibition activity; also recorded: did not inhibit any cyclophilin

CN1/C(=C/C=C/C=C/C2=[N+](CCCCCC(=O)NCCNC(=O)[C@@H]3CCNC(=O)/C=C/C(=O)N4CCC[C@](Cc5ccccc5)(C4)C(=O)N[C@@H](Cc4ccc(-c5ccc(C(CC(=O)O)CC(=O)O)cc5)cc4)C(=O)NCc4ccccc4CC(=O)N3)c3ccccc3C2(C)C)C(C)(C)c2ccccc21 [Compound B53-Cy5]
cyclophilin selectivity profile (in words) (cyclophilins [1]): retain the same selectivity profile | mitochondrial localization (overlap with Mitotracker Green) (HeLa cells): poor mitochondrial localization and fluorescence | plasma membrane / mammalian cell permeability (HeLa cells): not observed | calcium retention capacity prior to mPTP opening [2]: increased calcium retention capacity

O=C1/C=C/C(=O)N2CCC[C@](Cc3ccccc3)(C2)C(=O)N[C@@H](Cc2ccco2)C(=O)NCc2ccccc2CC(=O)N[C@H](C(=O)NCCCOCCOCCOCCCNC(=O)c2ccc3c(c2)C(=O)OC32c3ccc(O)cc3Oc3cc(O)ccc32)CCN1 [Compound A26-Fl]
binding to five non-prolyl isomerase active cyclophilins (PPIL2, PPIL3, PPIL4, PPIL6, SDCCAG-10) (cyclophilins [3]): very weak or no binding | binding to prolyl-isomerase-active cyclophilins (in words) (cyclophilins [3]): promiscuously binds

NCCOCCNC(=O)[C@@H]1CCNC(=O)/C=C/C(=O)N2CCC[C@](Cc3ccccc3)(C2)C(=O)N[C@@H](Cc2ccc(-c3ccccc3)cc2)C(=O)NCc2ccccc2CC(=O)N1 [Compound B2]
cyclophilin selectivity profile (in words) (cyclophilins [1]): selectivity over cyclophilins with sterically occluded S2 pockets

CC(=O)NCCNC(=O)CCCCCN1\C(=C/C=C/C=C/C2=[N+](C)c3ccccc3C2(C)C)C(C)(C)c2ccccc21 [Cy5-enAc, reference compound]
mitochondrial localization (overlap with Mitotracker Green) (HeLa cells): good mitochondrial localization | CypD prolyl-isomerase inhibition (in words) (CypD): does not inhibit CypD

O=C1/C=C/C(=O)N2CCC[C@](Cc3ccccc3)(C2)C(=O)N[C@@H](Cc2ccc(-c3ccc(CC(C(=O)O)C(=O)O)cc3)cc2)C(=O)NCc2ccccc2CC(=O)N[C@H](C(=O)NCCCOCCOCCOCCCNC(=O)c2ccc3c(c2)C(=O)OC32c3ccc(O)cc3Oc3cc(O)ccc32)CCN1 [Compound B52-Fl]
binding to five non-prolyl isomerase active cyclophilins (PPIL2, PPIL3, PPIL4, PPIL6, SDCCAG-10) (cyclophilins [3]): very weak or no binding | binding to prolyl-isomerase-active cyclophilins (in words) (cyclophilins [3]): selective binding for CypD

NCCOCCNC(=O)[C@@H]1CCNC(=O)/C=C/C(=O)N2CCC[C@](Cc3ccccc3)(C2)C(=O)N[C@@H](Cc2ccc(-c3ccc(C#CC(=O)O)cc3)cc2)C(=O)NCc2ccccc2CC(=O)N1 [Compound B25]
cyclophilin selectivity profile (in words) (cyclophilins [1]): selectivity over non-lysine-containing PPIL1, Cyp40, CypC, and PPWD1

NC(=O)[C@@H]1CCNC(=O)/C=C/C(=O)N2CCC[C@](Cc3ccccc3)(C2)C(=O)N[C@@H](Cc2ccc(-c3ccc(CC(C(=O)O)C(=O)O)cc3)cc2)C(=O)NCc2ccccc2CC(=O)N1 [Compound B52-A]
cyclophilin selectivity profile (in words) (cyclophilins [1]): retain the same selectivity profile

CC(=O)c1cc(-c2ccc(C[C@@H]3NC(=O)[C@]4(Cc5ccccc5)CCCN(C4)C(=O)/C=C/C(=O)NCC[C@@H](C(N)=O)NC(=O)Cc4ccccc4CNC3=O)cc2)ccc1B(O)O [Compound C2A]
CypE binding in FP competition (in words) (CypE [4]): attenuated binding to CypE; also recorded: decreased potency for CypE

O=C(O)CC(CC(=O)O)c1ccc(-c2ccc(C[C@@H]3NC(=O)[C@]4(Cc5ccccc5)CCCN(C4)C(=O)/C=C/C(=O)NCC[C@@H](C(=O)NCCCOCCOCCOCCCNC(=O)c4ccc5c(c4)C(=O)OC54c5ccc(O)cc5Oc5cc(O)ccc54)NC(=O)Cc4ccccc4CNC3=O)cc2)cc1 [Compound B53-Fl]
binding to five non-prolyl isomerase active cyclophilins (PPIL2, PPIL3, PPIL4, PPIL6, SDCCAG-10) (cyclophilins [3]): very weak or no binding | binding to prolyl-isomerase-active cyclophilins (in words) (cyclophilins [3]): selective binding for CypD

NCCOCCNC(=O)[C@@H]1CCNC(=O)/C=C/C(=O)N2CCC[C@](Cc3ccccc3)(C2)C(=O)N[C@@H](Cc2ccc(-c3ccc(CCC(=O)O)cc3)cc2)C(=O)NCc2ccccc2CC(=O)N1 [Compound B23]
cyclophilin selectivity profile (in words) (cyclophilins [1]): selectivity over non-lysine-containing PPIL1, Cyp40, CypC, and PPWD1

N#CCc1ccc(-c2ccc(C[C@@H]3NC(=O)[C@]4(Cc5ccccc5)CCCN(C4)C(=O)/C=C/C(=O)NCC[C@@H](C(=O)NCCOCCN)NC(=O)Cc4ccccc4CNC3=O)cc2)cc1C(=O)O [Compound B51]
cyclophilin selectivity profile (in words) (cyclophilins [1]): hampers the selectivity | inhibition of cyclophilins tested (in words) (cyclophilins [1]): loss of potency

NC(=O)[C@@H]1CCNC(=O)/C=C/C(=O)N2CCC[C@](Cc3ccccc3)(C2)C(=O)N[C@@H](Cc2ccc(-c3cccc(B(O)O)c3)cc2)C(=O)NCc2ccccc2CC(=O)N1 [Compound C6A]
IC50 (CypE [5]): 4 µM | decrease in potency relative to C3A (CypE [4]; FP competition with A26-Fl against CypE): 100 fold | CypE binding in FP competition (in words) (CypE [4]): attenuated inhibition of CypE

NC(=O)[C@@H]1CCNC(=O)/C=C/C(=O)N2CCC[C@](Cc3ccccc3)(C2)C(=O)N[C@@H](Cc2ccc(-c3ccc(C(CC(=O)O)CC(=O)O)cc3)cc2)C(=O)NCc2ccccc2CC(=O)N1 [Compound B53-A]
cyclophilin selectivity profile (in words) (cyclophilins [1]): retain the same selectivity profile

NC(=O)[C@H]1CCNC(=O)/C=C/C(=O)N2CCC[C@](Cc3ccccc3)(C2)C(=O)N[C@H](Cc2ccc(-c3ccc(C(CC(=O)O)CC(=O)O)cc3)cc2)C(=O)NCc2ccccc2CC(=O)N1 [*B53-A]
inhibition of cyclophilins tested (in words) (cyclophilins [1]): no substantial inhibition activity; also recorded: did not inhibit any cyclophilin

CC(=O)c1ccc(-c2ccc(C[C@@H]3NC(=O)[C@]4(Cc5ccccc5)CCCN(C4)C(=O)/C=C/C(=O)NCC[C@@H](C(N)=O)NC(=O)Cc4ccccc4CNC3=O)cc2)cc1B(O)O [Compound C1A]
CypE potency and selectivity in prolyl isomerase assay (in words) (CypE [5]): loss of potency and selectivity for CypE | IC50 (CypE [5]): 0.9 µM | CypE binding in FP competition (in words) (CypE [4]): attenuated binding to CypE; also recorded: decreased potency for CypE
